Data set [1] in a line: Protein binding (free ligand fraction in plasma). As to conditions: obtained amyloid probe. The format is in vitro ADME. The method, then:
(§1) The labeling of the compounds of the invention was carried out under standard conditions (Na^123/125I, oxidizer, acidic medium) at ambient temperature. Radiochemical yields averaged 35-90%. The labeled compounds were readily purified by reverse-phase HPLC, and their radiochemical purity exceeded 95%.

A short description of another data set: Lipophilicity (LogD). The format is physicochemical. To be noted: pH 7.4; obtained amyloid probe. The method, then:
as §1

The structures appear in SMILES notation.

Experimental findings from US7700616B2, “Compounds and amyloid probes thereof for therapeutic and imaging uses” (Molecular Neuroimaging, LLC., priority 2006, dated 2010) are described below.

What is called logD is lipophilicity at a set pH, counting ionised and neutral species. A higher logD goes with a more lipophilic compound.

Take `CN(C)c1ccc(-n2nc3ccc(I)cc3n2)cc1` [MNI-187]: the “free ligand fraction in plasma” value in data set [1] is on record as 4%. The logD in the data set “Lipophilicity (LogD)” was 2.7.
